The results in this text go back to patent US9815862B2, “Polymorphs of LNnT” (Glycom A/S, priority 2012, dated 2017).

A short description of data set [1]: Redissolution of the precipitate formed from aqueous LNnT solution. In kind it is physicochemical. As to conditions: white precipitate from aqueous solution stored at 2-8° C. or room temperature. The method, then:
Amorphous spray-dried LNnT (6.0087 g, water content: 2.67%, purity: 99.2% by HPAEC) was dissolved in HPLC water (10.66 ml). Dissolution was reached by shaking. Two samples of 1 ml solution were stored at 2-8° C. (sample 1) and room temperature (sample 2), respectively, for 4 weeks. […] The precipitation was collected by filtration and dried at atmospheric pressure.

The nature of data set [2]: Storage of crystalline polymorph in an open vessel, checked by XRPD. Format: physicochemical. As to conditions: stored in an open vessel at ambient temperature and humidity for a week. The method, then:
XRPD investigation of the collected crystals was conducted with a Philips PW 1830/PW 1050 instrument in transmission geometry, using CuKα radiation made monochromatic by means of a graphite monochromator. D-spacings were calculated from the 2Θ values, based on a wavelength of 1.54186 Å. As a general rule the 2Θ values have an error rate of […].

Take `CC(=O)N[C@H]1[C@H](O[C@H]2[C@@H](O)[C@@H](CO)O[C@@H](O[C@H]3[C@H](O)[C@@H](O)C(O)O[C@@H]3CO)[C@@H]2O)O[C@H](CO)[C@@H](O[C@@H]2O[C@H](CO)[C@H](O)[C@H](O)[C@H]2O)[C@@H]1O` (mixture of isomers) [LNnT polymorph IV, lacto-N-neotetraose]: in data set [1], the “redissolution of the precipitated crystals” value was “can be redissolved only when ultrasonicated for 3 hours at 50 °C”.

On to `CC(=O)N[C@H]1[C@H](O[C@H]2[C@@H](O)[C@@H](CO)O[C@@H](O[C@H]3[C@H](O)[C@@H](O)C(O)O[C@@H]3CO)[C@@H]2O)O[C@H](CO)[C@@H](O[C@@H]2O[C@H](CO)[C@H](O)[C@H](O)[C@H]2O)[C@@H]1O` (mixture of isomers) [LNnT polymorph V, lacto-N-neotetraose], for which the “change in XRPD pattern on storage (solid-state stability)” value in data set [2] is “no substantial change in its XRPD pattern can be observed”.
